Measurements reported in patent US8399378B2, “Use of neonicotinoids in pest control” (Syngenta Crop Protection LLC, priority 1998, dated 2013).

Tests used:
Nilaparvata lugens = assay: Rice plant pot test, action against Nilaparvata lugens (systemic); type: in vivo; details: 6 days; for control (percentage reduction in population, % action): placed in aqueous emulsion with 400 ppm compound; for control level: pot (B) conventional rice plants
Protocol: (§1) Rice plants expressing the δ-endotoxin CryIA(b) are planted in a in pot (A) and conventional rice plants are planted in a pot (B). Pot (A) is placed in an aqueous emulsion containing 400 ppm thiamethoxam, whereas plot (B) is place in a pot containing 400 ppm thiamethoxam and 400 ppm of the δ-endotoxin CryIA(b). The plants are subsequently infected with Nilaparvata lugens larvae of the second and third stage. The test is evaluated after 6 days.
The percentage reduction in population (% action) is determined by comparing the number of dead pests on the plants of pot (A) with that on the plants of pot (B).
as §1, with “CryIA(c)” for “CryIA(b)”, “CryIA(c).” for “CryIA(b).”

Diabrotica balteata = assay: Maize seedling spray test, action against Diabrotica balteata; type: in vivo; details: 6 days
Protocol: A plot (a) planted with maize seedlings cv. KnockOut® and an adjacent plot (b) of the same size which is planted with conventional maize are sprayed with an aqueous emulsion of a spray mixture comprising 400 ppm thiamethoxam. Immediately afterwards, plot (b) is treated with an emulsion spray mixture comprising 400 ppm of the endotoxin expressed by KnockOut®. After the spray coating has dried on, the seedlings are populated with 10 Diabrotica balteata larvae in the second stage and transferred to a plastic container. The test is evaluated 6 days later. The percentage reduction in population (% action) is determined by comparing the number of dead pests on the plants of plot (a) with that on the plants of plot (b).

CN1COCN(Cc2cnc(Cl)s2)/C1=N\[N+](=O)[O-] [thiamethoxam, 5-(2-Chlorthiazol-5-ylmethyl)-3-methyl-4-nitroimino-perhydro-1,3,5-oxadiazin]
control (percentage reduction in population, % action) (Nilaparvata lugens; pot (A) rice plants expressing δ-endotoxin CryIa(b)): Improved control
control (percentage reduction in population, % action) (Nilaparvata lugens; pot (A) rice plants expressing δ-endotoxin CryIa(c)): Improved control
control level (Nilaparvata lugens; 400 ppm compound and 400 ppm δ-endotoxin CryIA(b)): ≤ 60%
control level (Nilaparvata lugens; 400 ppm compound and 400 ppm δ-endotoxin CryIA(c)): ≤ 60%
control (percentage reduction in population, % action) (Diabrotica balteata; plot (a) maize seedlings cv. KnockOut, spray 400 ppm, larvae in the second stage): Improved control
control level (Diabrotica balteata; plot (b) conventional maize, 400 ppm compound, then 400 ppm of the endotoxin expressed by KnockOut): ≤ 60%
